Results: patent US20180099931A1 (AbbVie S.à.r.l., priority 2016, published 2018)
Like-named read-outs stand apart in the source and are kept apart here.

Target: T1, F508delCFTR (Homo sapiens, UniProt P13569, DEL508-508)
T1 construct: expressed in transfected cells; host or cells: CFBE41o- human lung-derived epithelial cells (CFBE4lo-F508delCFTR-HRP), doxycycline-inducible
Test: Cell Surface Expression-Horse Radish Peroxidase (CSE-HRP) Assay;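 as to Maximum % activity (with co-corrector): co-corrector and positive control are both the same reference corrector at 2 µM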;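 as to Maximum % activity (without co-corrector): percent of the 2 µM on-plate positive control corrector response above DMSO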
Assay type: cell-based
Details: for Emax: read-out: Maximum % activity (without co-corrector)

[1] = test compound without co-corrector, read-out: EC50 (without co-corrector)
[2] = with co-corrector (2 μM of 3-[(2R,4R)-4-({[1-(2,2-difluoro-1,3-benzodioxol-5-yl)cyclopropyl]carbonyl}amino)-7-methoxy-3,4-dihydro-2H-chromen-2-yl]benzoic acid), read-out: EC50 (with co-corrector)
[3] = with co-corrector (2 μM), maximum at any tested concentration, normalized to on-plate positive control
[4] = without co-corrector, maximum at any tested concentration, normalized to on-plate positive control
[5] = test compound without co-corrector, maximum at any tested concentration, normalized to on-plate positive control
[6] = with co-corrector (2 μM of 3-[(2R,4R)-4-({[1-(2,2-difluoro-1,3-benzodioxol-5-yl)cyclopropyl]carbonyl}amino)-7-methoxy-3,4-dihydro-2H-chromen-2-yl]benzoic acid), maximum at any tested concentration, normalized to on-plate positive control
[7] = CSE-HRP, test compound without co-corrector, read-out: EC50 (without co-corrector)
[8] = CSE-HRP, with co-corrector (2 μM of 3-[(2R,4R)-4-({[1-(2,2-difluoro-1,3-benzodioxol-5-yl)cyclopropyl]carbonyl}amino)-7-methoxy-3,4-dihydro-2H-chromen-2-yl]benzoic acid), read-out: EC50 (with co-corrector)
[9] = CSE-HRP, with co-corrector (2 μM), maximum at any tested concentration, normalized to on-plate positive control
[10] = CSE-HRP, without co-corrector, maximum at any tested concentration, normalized to on-plate positive control

T1 sequence (P13569 with tags, fused parts or gaps DEL508-508): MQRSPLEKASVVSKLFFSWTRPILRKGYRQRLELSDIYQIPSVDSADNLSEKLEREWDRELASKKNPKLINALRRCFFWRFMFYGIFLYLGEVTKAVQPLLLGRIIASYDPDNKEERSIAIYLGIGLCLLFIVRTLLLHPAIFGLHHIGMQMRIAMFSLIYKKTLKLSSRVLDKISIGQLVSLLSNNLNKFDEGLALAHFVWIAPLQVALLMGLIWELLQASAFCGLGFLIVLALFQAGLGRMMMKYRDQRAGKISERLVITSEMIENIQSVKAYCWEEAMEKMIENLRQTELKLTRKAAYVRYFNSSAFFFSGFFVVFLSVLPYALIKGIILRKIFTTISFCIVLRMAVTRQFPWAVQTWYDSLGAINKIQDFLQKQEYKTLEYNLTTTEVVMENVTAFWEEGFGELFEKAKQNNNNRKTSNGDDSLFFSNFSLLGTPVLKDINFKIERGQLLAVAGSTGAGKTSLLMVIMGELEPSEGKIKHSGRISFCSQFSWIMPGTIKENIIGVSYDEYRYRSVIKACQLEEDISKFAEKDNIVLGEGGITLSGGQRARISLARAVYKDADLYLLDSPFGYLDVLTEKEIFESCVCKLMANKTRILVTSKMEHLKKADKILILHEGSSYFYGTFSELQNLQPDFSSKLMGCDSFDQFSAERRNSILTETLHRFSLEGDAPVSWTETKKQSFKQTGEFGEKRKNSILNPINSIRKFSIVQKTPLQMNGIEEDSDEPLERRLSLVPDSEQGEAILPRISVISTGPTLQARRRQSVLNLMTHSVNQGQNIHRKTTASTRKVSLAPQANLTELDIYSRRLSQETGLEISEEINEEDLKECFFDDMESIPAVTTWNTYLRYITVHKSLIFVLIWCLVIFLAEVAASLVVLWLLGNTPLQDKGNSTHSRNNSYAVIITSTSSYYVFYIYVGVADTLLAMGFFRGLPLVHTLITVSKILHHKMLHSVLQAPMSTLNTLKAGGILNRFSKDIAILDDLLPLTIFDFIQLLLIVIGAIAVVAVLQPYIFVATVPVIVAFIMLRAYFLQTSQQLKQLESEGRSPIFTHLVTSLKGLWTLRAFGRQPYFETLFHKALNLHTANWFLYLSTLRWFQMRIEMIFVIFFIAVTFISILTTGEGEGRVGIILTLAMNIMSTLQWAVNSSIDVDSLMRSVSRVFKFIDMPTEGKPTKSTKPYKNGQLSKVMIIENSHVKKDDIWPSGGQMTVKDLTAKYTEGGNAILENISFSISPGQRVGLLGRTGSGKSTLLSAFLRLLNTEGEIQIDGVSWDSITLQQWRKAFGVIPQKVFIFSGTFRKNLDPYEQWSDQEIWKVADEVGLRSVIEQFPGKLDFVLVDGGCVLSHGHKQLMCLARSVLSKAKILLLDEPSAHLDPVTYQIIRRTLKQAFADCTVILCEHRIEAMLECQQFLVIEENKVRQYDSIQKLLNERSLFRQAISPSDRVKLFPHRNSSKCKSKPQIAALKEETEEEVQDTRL

Row | SMILES | EC50 [1] [nM] | EC50 [2] [nM] | Maximum % activity (with co-corrector) [3] | Emax [4] [%] | Emax [5] [%] | Maximum % activity (with co-corrector) [6] | EC50 [7] [nM] | EC50 [8] [nM] | Maximum % activity (with co-corrector) [9] | Emax [10] [%] | Maximum % activity (without co-corrector) [4]
1 | COc1ccc(S(F)(F)(F)(F)F)cc1CN[C@H]1[C@H](C(C)(C)C)[C@@H](C(=O)O)N(C(=O)C2CCCCC2)[C@H]1c1ccccc1 [Example I-86] | < 1000 | < 1000 | +++ (≥350) | 100 to 200 |  |  |  |  |  |  | 
2 | COc1ccc(C(F)(F)F)cc1CN[C@@H]1[C@@H](C(C)(C)C)[C@H](C(=O)O)N(C(=O)C2CCCCC2)[C@@H]1c1ccccc1 (racemic) [Example I-6] | 1000 to 10000 | 1000 to 10000 | +++ (≥350) | > 200 |  |  |  |  |  |  | 
3 | COc1cc(OC)nc(N[C@@H]2[C@@H](C(C)(C)C)[C@H](C(=O)O)N(C(=O)C3CCCCC3)[C@@H]2c2ccccc2)n1 (racemic) [Example I-1] | 1000 to 10000 | 1000 to 10000 | +++ (≥350) | < 100 |  |  |  |  |  |  | 
4 | COc1ccc(C(C)(C)C)cc1CN[C@H]1[C@H](C23CC(C2)C3)[C@@H](C(=O)O)N(C(=O)OC(C)C)[C@H]1c1cccnc1N(C)C [Example 71, (2S,3S,4S,5S)-3-(bicyclo[1.1.1]pentan-1-yl)-4-{[(5-tert-butyl-2-methoxyphenyl)methyl]amino}-5-[2-(dimethylamino)pyridin-3-yl]-1-{[(propan-2-yl)oxy]carbonyl}pyrrolidine-2-carboxylic acid] | 1000 to 10000 | 1000 to 10000 | +++ (≥350) | > 200 |  |  |  |  |  |  | 
5 | COc1ccc(Cl)cc1CN[C@H]1[C@H](C(C)(C)C)[C@@H](C(=O)O)N(C(=O)C2CCCCC2)[C@H]1c1ncccc1OC (racemic) [Example I-40] | > 10000 | > 10000 | + (<150) | < 100 |  |  |  |  |  |  | 
6 | COc1ccc(C(C)(C)C)cc1CN[C@H]1[C@H](C(C)(C)C)[C@@H](C(=O)O)N(C(=O)C2Cc3ccccc3O2)[C@H]1c1cccnc1OC (single isomer, unassigned) [Example I-166] | 1000 to 10000 | < 1000 | +++ (≥350) |  |  |  |  |  |  |  | + (<100)
7 | COc1ccc(C(C)(C)C)cc1CN[C@H]1[C@H](C(C)(C)C)[C@@H](C(=O)O)N(C(=O)OCc2ccccc2Cl)[C@H]1c1ccccc1 [Example I-154] | < 1000 | < 1000 | +++ (≥350) | 100 to 200 |  |  |  |  |  |  | 
8 | COc1ccc(C(C)(C)C)cc1CN[C@H]1[C@H](C(C)(C)C)[C@@H](C(=O)O)N(C(=O)C(OC)C2CCCCC2)[C@H]1c1ccccc1 (some centres unmarked) [Example I-160] | < 1000 | < 1000 | +++ (≥350) | > 200 |  |  |  |  |  |  | 
9 | COc1ccc(C(C)(C)C(F)(F)F)cc1CN[C@H]1[C@H](C(C)(C)C)[C@@H](C(=O)O)N(C(=O)C2CCCCC2)[C@H]1c1ccccc1 [Example I-213] | 1000 to 10000 | 1000 to 10000 | +++ (≥350) | > 200 |  |  |  |  |  |  | 
10 | COc1cc(C(F)(F)F)ccc1CN[C@@H]1[C@@H](C(C)(C)C)[C@H](C(=O)O)N(C(=O)OC(C)C)[C@@H]1c1cccnc1N(C)C (racemic) [Example I-28] | 1000 to 10000 | 1000 to 10000 | +++ (≥350) | > 200 |  |  |  |  |  |  | 

The remaining lines, values ahead:

Row | EC50 [1] [nM] | EC50 [2] [nM] | Maximum % activity (with co-corrector) [3] | Emax [4] [%] | Emax [5] [%] | Maximum % activity (with co-corrector) [6] | EC50 [7] [nM] | EC50 [8] [nM] | Maximum % activity (with co-corrector) [9] | Emax [10] [%] | Maximum % activity (without co-corrector) [4] | SMILES
11 | 1000 to 10000 | 1000 to 10000 |  |  | > 200 | +++ (≥350) |  |  |  |  |  | COc1ncc(C(F)(F)F)cc1CN[C@H]1[C@H](C(C)(C)C)[C@@H](C(=O)O)N(C(=O)OC(C)C)[C@H]1c1cccnc1N1CCC1 [II-592]
12 |  |  |  |  |  |  | < 1000 | < 1000 | +++ (≥350) | > 200 |  | COc1ccc(C2CCCCC2)cc1CN[C@H]1[C@H](C(C)(C)C)[C@@H](C(=O)O)N(C(=O)C2CCCCC2)[C@H]1c1ccccc1 [II-192]
13 |  |  |  |  |  |  | < 1000 | < 1000 | +++ (≥350) | > 200 |  | COc1ccc(C(C)(C)C)cc1CN[C@H]1[C@H](C(C)(C)C)[C@@H](C(=O)O)N(C(=O)C2CCCC(C(F)(F)F)C2)[C@H]1c1ccccc1 (some centres unmarked) [II-186]
14 | 1000 to 10000 | < 1000 |  |  | > 200 | +++ (≥350) |  |  |  |  |  | COc1cc(C(F)(F)F)ccc1CN[C@H]1[C@H](C(C)(C)C)[C@@H](C(=O)O)N(C(=O)OC(C)C)[C@H]1c1ccccc1C(C)C [II-561]
15 |  |  |  |  |  |  | 1000 to 10000 | 1000 to 10000 | +++ (≥350) | < 100 |  | Cc1ccc(C#N)c(N[C@H]2[C@H](C(C)(C)C)[C@@H](C(=O)O)N(C(=O)C3CCCCC3)[C@H]2c2ccccc2)n1 [II-146]
16 | > 10000 | 1000 to 10000 | ++ (≥150 and <350) |  | < 100 |  |  |  |  |  |  | CC(C)(C)[C@H]1[C@H](NCc2ccc(C(F)(F)F)cc2F)[C@H](c2ccccc2)N(C(=O)C2CCCCC2)[C@@H]1C(=O)O [III-136]
17 |  |  |  |  |  |  | 1000 to 10000 | < 1000 | +++ (≥350) | > 200 |  | COc1ccc(C(C)(C)C)cc1CN[C@H]1[C@H](C(C)(C)C)[C@@H](C(=O)O)N(C(=O)CC23CC(C2)C3)[C@H]1c1ccccc1 [II-177]
18 | > 10000 | 1000 to 10000 | ++ (≥150 and <350) |  | < 100 |  |  |  |  |  |  | COc1cc(C(F)(F)F)ccc1CN[C@@H]1[C@@H](C(C)(C)C)[C@H](C(=O)O)N(C(=O)[C@H]2CCCCO2)[C@@H]1c1ccccc1 [III-117]
19 | > 10000 | 1000 to 10000 |  |  | < 100 | ++ (≥150 and <350) |  |  |  |  |  | Cc1cc(C(F)(F)F)cc(N[C@@H]2[C@@H](C(C)(C)C)[C@H](C(=O)NS(=O)(=O)C(C)(C)C)N(C(=O)C3CCCCC3)[C@@H]2c2ccccc2)n1 (racemic) [III-50]
20 | 1000 to 10000 | 1000 to 10000 |  |  | 100 to 200 | +++ (≥350) |  |  |  |  |  | COc1ccc(C(C)(C)C)cc1CN[C@H]1[C@H](C(C)(C)C)[C@@H](C(=O)O)N(C(=O)C2CCC(F)(F)CC2)[C@H]1c1ccccc1 [II-377]
21 |  |  |  |  |  |  | 1000 to 10000 | 1000 to 10000 | +++ (≥350) | 100 to 200 |  | COc1ccc(C(F)(F)F)cc1CN[C@H]1[C@H](C(C)(C)C)[C@@H](C(=O)O)N(C(=O)C2CCCCC2)[C@H]1c1cccnc1C [II-93]
22 | < 1000 | < 1000 |  |  | > 200 | +++ (≥350) |  |  |  |  |  | COc1ccc(C(C)(C)C)cc1CN[C@H]1[C@H](C(C)(C)C)[C@@H](C(=O)O)N(C(=O)C2CCc3cc(Cl)ccc32)[C@H]1c1ccccc1 (some centres unmarked) [II-369]
23 | 1000 to 10000 | 1000 to 10000 |  |  | > 200 | +++ (≥350) |  |  |  |  |  | COc1ccc(C23CC(C2)C3)cc1CN[C@H]1[C@H](C(C)(C)C)[C@@H](C(=O)O)N(C(=O)[C@@H]2CCC[C@@H](OC)C2)[C@H]1c1ccccc1 [II-479]
24 | 1000 to 10000 | 1000 to 10000 |  |  | 100 to 200 | +++ (≥350) |  |  |  |  |  | COC1(CN[C@H]2[C@H](C(C)(C)C)[C@@H](C(=O)O)N(C(=O)C3CCCCC3)[C@H]2c2ccccc2)CCCCC1 [II-394]
25 | 1000 to 10000 | < 1000 |  |  | > 200 | +++ (≥350) |  |  |  |  |  | COc1ccc(C2(C(F)(F)F)CC2)cc1CN[C@H]1[C@H](C(C)(C)C)[C@@H](C(=O)O)N(C(=O)C2CCCCC2)[C@H]1c1ccccc1F [II-353]
26 |  |  |  |  |  |  | < 1000 | < 1000 | +++ (≥350) | < 100 |  | COc1ccc(C(C)(C)C)cc1CN[C@H]1[C@H](C(C)(C)C)[C@@H](C(=O)O)N(C(=O)c2coc3ccccc23)[C@H]1c1ccccc1 [II-185]
